Experimental data taken from patent US20130209582A1, “HYDROGEN IODIDE-[…] FOOD AND HYDROGEN IODIDE-CONTAINING DRUG, AND METHOD FOR PRODUCING SAME” (priority 2010, published 2013).

Experiment: Gastrointestinal absorption and retention in the thyroid gland after taking hydrogen iodide into the body
Type: in vivo
Details: through gastrointestinal absorption
Method: When taking hydrogen iodide into the body, the hydrogen iodide reaches to the thyroid gland within 30 minutes through gastrointestinal absorption. Since the hydrogen iodide is retained in the thyroid gland for about two hours, it is preferable to take the health food or the pharmaceutical product every two hours in a serious case. Moreover, it is preferable to take them not in large quantities at one time, but in small quantities frequently on an empty stomach.

I [hydrogen iodide]
time to reach the thyroid gland: ≤ 30 min
